Measured values reported in PMC11755709, “Cytotoxicity and Oxidative Stress Induced by Technology-Critical Elements versus Traditional Metal Contaminants: An In Vitro Bioassay Study” (Environmental Science & Technology, 2025).
Entries after “also recorded” stand apart in the source; their conditions may differ. Read-outs that look alike come from different tables or passages of the source.

Experiments:
[1] = tested on: nuclear factor erythroid 2-related factor 2 (Nrf2) pathway; assay type: cell-based, human; conditions: for ECIR1.5 (effective concentration at an induction ratio of 1.5), Nrf2 activity: MCF7AREc32, 24 h exposure, linear regression; for induction of oxidative stress (Nrf2 activity exceeding a 1.5 induction ratio): MCF7AREc32, noncytotoxic concentrations
[2] = tested on: MCF7AREc32 cell line; conditions: for IC70, cytotoxicity / cytotoxicity (cell viability <80% vs vehicle control): MCF7AREc32, MTS test; for IC70, cytotoxicity: 24 h exposure, 70% response relative to vehicle control; for cytotoxicity (cell viability <80% vs vehicle control): up to 10 or 100 mg/L
[3] = tested on: AR-EcoScreen GR-KO-M1 cell line; conditions: for cytotoxicity (cell viability <80% vs vehicle control) / IC70, cytotoxicity: AR-EcoScreen GR-KO-M1, MTS test; for cytotoxicity (cell viability <80% vs vehicle control): up to 10 or 100 mg/L; for IC50: read-out: interpolated IC50, cytotoxicity, AR-EcoScreen, converted to mmol/L
[4] = tested on: DR-EcoScreen cell line; conditions: for IC70, cytotoxicity / cytotoxicity (cell viability <80% vs vehicle control): MTS test; for cytotoxicity (cell viability <80% vs vehicle control): up to 10 or 100 mg/L
[5] = tested on: human bone osteoblasts; design: method as in Al-Ghafari et al. [55]; conditions: ref Al-Ghafari et al. [55], read-out: IC50 (MTT assay); cited from earlier work
[6] = tested on: human bone osteoblasts; design: method as in Al-Ghafari et al. [55]; conditions: ref Al-Ghafari et al. [55], read-out: IC50 (LDH assay); cited from earlier work
[7] = tested on: VM7Luc4E2 cell line; conditions: VM7Luc4E2, ATPase test; for cytotoxicity (cell viability <80% vs vehicle control): up to 10 or 100 mg/L; for IC80: read-out: IC80, cytotoxicity
[8] = tested on: rat NR8383 alveolar macrophages; design: method as in Huang et al. [69]; conditions: highest tested 200 mg/L, ref Huang et al. [69]; cited from earlier work

SMILES | ECIR1.5 (effective concentration at an induction ratio of 1.5), Nrf2 activity [1] | cytotoxicity (cell viability <80% vs vehicle control) [2] | cytotoxicity (cell viability <80% vs vehicle control) [3] | IC70, cytotoxicity ([4]; 24 h exposure) | cytotoxicity (cell viability <80% vs vehicle control) [4] | IC70, cytotoxicity ([3]; 24 h exposure) | cytotoxicity (cell viability <80% vs vehicle control) [7] | also measured
[As] [As, arsenic, reference compound] | 0.11 mg/L | Cytotoxicity is shown; also recorded: cytotoxicity was identified | Cytotoxicity is shown; also recorded: cytotoxicity was identified | 0.83 µg/mL | Cytotoxicity is shown; also recorded: cytotoxicity was identified |  |  | induction of oxidative stress (Nrf2 activity exceeding a 1.5 induction ratio) [1]: found to induce oxidative stress; IC70, cytotoxicity [2]: 8.1 µg/mL; IC50 [3]: 0.17 mmol/L; IC50 ([4]; read-out: interpolated IC50, cytotoxicity, converted to mmol/L): 0.014 mmol/L
[Cd] [Cd, cadmium] | 0.24 mg/L | Cytotoxicity is shown; also recorded: cytotoxicity was identified | Cytotoxicity is shown; also recorded: cytotoxicity was identified |  | Cytotoxicity is shown; also recorded: cytotoxicity was identified | 2.6 mg/L |  | induction of oxidative stress (Nrf2 activity exceeding a 1.5 induction ratio) [1]: found to induce oxidative stress; IC70, cytotoxicity [2]: 9.1 µg/mL; IC50 ([2]; read-out: interpolated IC50, cytotoxicity, MCF7AREc32, converted to mmol/L): 0.087 mmol/L; IC50 [3]: 0.052 mmol/L; IC50 [5]: 32 µM; IC50 [6]: 63 µM
[Ga] [Ga, gallium] | 0.83 mg/L |  | Cytotoxicity is shown; also recorded: Cytotoxic effects were most clearly observed | 100 µg/mL | Cytotoxicity is shown; also recorded: Cytotoxic effects were most clearly observed | 50 mg/L | Cytotoxicity is shown; also recorded: Cytotoxic effects were most clearly observed | induction of oxidative stress (Nrf2 activity exceeding a 1.5 induction ratio) [1]: found to induce oxidative stress; IC70, cytotoxicity ([3]; converted from mg/L): 0.72 mmol/L; IC70, cytotoxicity ([4]; converted from mg/L): 1400 µM; IC70, cytotoxicity ([7]; 24 h exposure): 52 µg/mL; IC70, cytotoxicity ([7]; converted from mg/L): 750 µM
[Gd] [Gd, Gadolinium] |  |  |  |  |  |  | Cytotoxicity is shown; also recorded: induce cytotoxic effects | IC80, cytotoxicity ([7]; 24 h exposure): 3.7 µg/mL; IC80 ([7]; converted from mg/L): 24 µM
[Ge] [Ge, germanium] |  | Neither Ge nor In exhibited any cytotoxicity | Neither Ge nor In exhibited any cytotoxicity |  | Neither Ge nor In exhibited any cytotoxicity |  | Neither Ge nor In exhibited any cytotoxicity | 
[Nd+3].[Nd+3].[O-2].[O-2].[O-2] [Nd2O3] |  |  |  |  |  |  |  | concentration up to which no noticeable cytotoxicity was observed [8]: 6250 ng/mL
[Nd] [Nd, Neodymium] |  |  | Cytotoxicity is shown; also recorded: Cytotoxic effects were most clearly observed | 31 µg/mL | Cytotoxicity is shown; also recorded: Cytotoxic effects were most clearly observed | 26 mg/L | Cytotoxicity is shown; also recorded: Cytotoxic effects were most clearly observed | IC70, cytotoxicity ([3]; converted from mg/L): 0.18 mmol/L; IC70, cytotoxicity ([4]; converted from mg/L): 210 µM; IC70, cytotoxicity ([7]; 24 h exposure): 24 µg/mL; IC70, cytotoxicity ([7]; converted from mg/L): 170 µM
[Pb] [Pb, lead] |  |  |  |  |  |  |  | IC50 [5]: 55 µM; IC50 [6]: 79 µM
[Te] [Te, tellurium] |  |  | Cytotoxicity is shown; also recorded: Cytotoxic effects were most clearly observed | 8.7 µg/mL | Cytotoxicity is shown; also recorded: Cytotoxic effects were most clearly observed | 0.28 mg/L | Cytotoxicity is shown; also recorded: Cytotoxic effects were most clearly observed | IC70, cytotoxicity ([3]; converted from mg/L): 2.2 × 10^–3 mmol/L; IC70, cytotoxicity ([4]; converted from mg/L): 68 µM; IC70, cytotoxicity ([7]; 24 h exposure): 1.5 µg/mL; IC70, cytotoxicity ([7]; converted from mg/L): 12 µM
[Tl] [Tl, thallium] |  | Cytotoxicity is shown; also recorded: Cytotoxicity for Tl was observed |  |  |  |  | Cytotoxicity is shown; also recorded: more evident | IC80, cytotoxicity ([7]; 24 h exposure): 9.0 µg/mL; IC80 ([7]; converted from mg/L): 44 µM
[Yb] [Yb, Ytterbium] |  |  |  |  |  |  | Cytotoxicity is shown; also recorded: induce cytotoxic effects | IC80, cytotoxicity ([7]; 24 h exposure): 33 µg/mL; IC80 ([7]; converted from mg/L): 190 µM
CC(C)(C)c1cc(O)ccc1O [tBHQ, tert-butylhydroquinone] | 0.27 mg/L |  |  |  |  |  |  | 
